From article PMC10146846, “Studying the Mechanism of Interaction of Doxofylline with Human Lysozyme: A Biophysical and In Silico Approach” (Molecules, 2023)
pKd: −log10 of the molar value.

What was measured:
[1] = target: T1, Human lysozyme (Homo sapiens, UniProt P61626); assay: UV-vis absorption titration, double-reciprocal plot; type: binding
T1 construct: gene LYZ
T1 sequence (P61626 19-148): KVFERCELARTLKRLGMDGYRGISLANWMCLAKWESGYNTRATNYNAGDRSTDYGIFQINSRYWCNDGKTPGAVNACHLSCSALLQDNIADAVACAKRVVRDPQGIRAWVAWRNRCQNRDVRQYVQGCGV
Excerpt: UV-vis absorption titration, double-reciprocal plot on Human lysozyme

[2] = target: T1, Human lysozyme; assay: intrinsic fluorescence quenching, excitation […] nm; type: binding; conditions: double-log; sodium phosphate pH 7.4, lysozyme 10 µM, doxofylline 0–60 µM

pKd [1]: 5.29
Kb [2]: 22900 M⁻¹
SMILES: Cn1c(=O)c2c(ncn2CC2OCCO2)n(C)c1=O [doxofylline]
